For assay [1], the target named is T1, truncated human IRE1a WT protein, containing the catalytic part (aa 547-977) (Homo sapiens, UniProt O75460).
T1 construct: containing the catalytic part (aa 547-977); made in house
The experiment in a line: IRE1a biochemical enzyme splice assay. The following applies: 20 nM protein, 500 nM fluorescently quenched IRE1a substrate, 40 min at room temperature; read-out: EnzymeSplice_hIRE1a_IC50 (IC50). How it is done: A truncated human IRE1a WT protein, containing the catalytic part (aa 547-977) was expressed in baculovirus. The purified protein (20 nM) was incubated with a fluorescently quenched IRE1a substrate (500 nM; 5′/6-FAM-CAGUCCGCAGCACUG-BHQ-1/3′) and a titration of inhibitor, starting at 10 μM (final DMSO concentration=1%) for 40 min at room temperature in assay buffer. Reactions were carried out in a final volume of […] in a 384 well assay plate. The reaction was stopped, and the plate was spun for 1 minute at 1000 rpm. The fluorescence intensity of the IRE1a-substrate was measured using an fluorescent plate reader (Ex 485 nm/Em 535 nm, Perkin Elmer Envision).

The test system of assay [2] is hIRE1a. The assay is described as follows: XBP1-Luc cell assay. The assay is classed as cell-based. As to conditions: Homo sapiens; HEK293-pLVX-XBP1.fluc-IRES-Puro cells, 600 nM Thapsigargin 1 hour, then inhibitor 6 hours; read-out: fLuc_XBP1_hIRE1a_HEK293_IC50 (IC50). The method, then:
HEK293-pLVX-XBP1.fluc-IRES-Puro cells (ChemPartner) were collected into DMEM (Invitrogen, 11995-065) with 10% FBS (BI, 04-002-1A). Cells were seeded at 1.5E4 cells/well in BioCoat Poly-D-Lysine Black/Clear flat bottom 96 well plate (Corning, 356640) and incubated overnight at 37° C. and 5% CO2. Cells were treated with 600 nM Thapsigargin (Sigma, T9033) for 1 hour at 37° C. and 5% CO2 prior to inhibitor addition. A titration of inhibitor, starting at 30 μM was added to wells for an additional 6 hours at 37° C. and 5% CO2. 100 μl of Steady-Glo Luciferase assay reagent (Promega, E2550) was added to plate and the plate was shaken for 2 minutes. Signal was read using EnSpire (Perkin Elmer).

T1 sequence (O75460 547-977): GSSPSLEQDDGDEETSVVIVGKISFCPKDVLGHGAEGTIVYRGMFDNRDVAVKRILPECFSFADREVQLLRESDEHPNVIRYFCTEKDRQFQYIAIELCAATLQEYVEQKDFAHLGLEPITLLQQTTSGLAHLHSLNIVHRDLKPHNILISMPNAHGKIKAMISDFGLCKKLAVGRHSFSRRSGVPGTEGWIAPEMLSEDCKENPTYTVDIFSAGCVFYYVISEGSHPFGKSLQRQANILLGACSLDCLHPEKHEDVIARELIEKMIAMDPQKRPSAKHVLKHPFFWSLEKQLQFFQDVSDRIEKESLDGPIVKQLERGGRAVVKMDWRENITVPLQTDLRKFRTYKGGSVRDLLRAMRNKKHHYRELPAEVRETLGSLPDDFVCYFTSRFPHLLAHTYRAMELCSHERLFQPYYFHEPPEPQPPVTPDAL

In the case of `CCc1cc(-c2ccc3c(NS(=O)(=O)c4ccccc4Cl)ncnn23)cc2cnc(N[C@H]3CCNC3)nc12` [Compound I-11, (S)-2-chloro-N-(7-(8-ethyl-2-(pyrrolidin-3-ylamino)quinazolin-6-yl)pyrrolo[2,1-f][1,2,4]triazin-4-yl)benzenesulfonamide], the concentration for half-maximal inhibition (IC50) (in general, the point on the concentration scale where inhibition reaches its midpoint) is less than 100 nM in assay [1] and 1000 to 10000 nM in assay [2].

As to `CCc1cc(-c2ccc3c(NS(=O)(=O)Cc4ccccc4Cl)ncnn23)cc2cnc(N[C@H]3CCCNC3)nc12` [Compound I-25, (S)-1-(2-chlorophenyl)-N-(7-(8-ethyl-2-(piperidin-3-ylamino)quinazolin-6-yl)pyrrolo[2,1-f][1,2,4]triazin-4-yl)methanesulfonamide], the values for the IC50 in assay [1] and in assay [2] were less than 100 nM and less than 1000 nM, respectively. As for `CCc1cc(-c2ccc3c(NS(=O)(=O)c4ccccc4Cl)ncnn23)cc2cnc(NC[C@H]3CCCNC3)nc12` [Compound I-8, (S)-2-chloro-N-(7-(8-ethyl-2-((piperidin-3-ylmethyl)amino)quinazolin-6-yl)pyrrolo[2,1-f][1,2,4]triazin-4-yl)benzenesulfonamide], the IC50 in assay [1] was less than 100 nM; in assay [2], 1000 to 10000 nM. For `CCc1cc(-c2ccc3c(NS(=O)(=O)c4ccccc4Cl)ncnn23)cc2cnc(N[C@H]3CC[C@H](N)CC3)nc12` [Compound I-32] the same measures were less than 100 nM and less than 1000 nM.

Take `CCc1cc(-c2ccc3c(NC(=O)NC4CC4)ncnn23)cc2cnc(NC3CCCNC3)nc12` (stereo in doubt) [Compound I-24, 3-cyclopropyl-1-(7-{8-ethyl-2-[(3R)-piperidin-3-ylamino]quinazolin-6-yl}pyrrolo[2,1-f][1,2,4]triazin-4-yl)urea]: the IC50 is 100 to 1000 nM in assay [1] and less than 1000 nM in assay [2].

Take `CCc1cc(-c2ccc3c(NS(=O)(=O)N4CCCC4)ncnn23)cc2cnc(N[C@H]3CCCNC3)nc12` [Compound I-30, Pyrrolidine-1-sulfonic acid {7-[8-ethyl-2-(piperidin-3-ylamino)-quinazolin-6-yl]-pyrrolo[2,1-f][1,2,4]triazin-4-yl}-amide]: the IC50 in assay [1] is less than 100 nM; in assay [2], less than 1000 nM. With `CCc1cc(-c2ccc3c(NS(=O)(=O)c4ccc(C(F)(F)F)cc4Cl)ncnn23)cc2cnc(N[C@H]3CCCNC3)nc12` [Compound I-34, (S)-2-chloro-N-(7-(8-ethyl-2-(piperidin-3-ylamino)quinazolin-6-yl)pyrrolo[2,1-f][1,2,4]triazin-4-yl)-4-(trifluoromethyl)benzenesulfonamide], in assay [1], the IC50 is greater than 1000 nM.

Regarding `CCc1cc(-c2ccc3c(NS(=O)(=O)c4ccccc4Cl)ncnn23)cc2cnc(NC[C@@H]3CCCNC3)nc12` [Compound I-17, (R)-2-chloro-N-(7-(8-ethyl-2-((piperidin-3-ylmethyl)amino)quinazolin-6-yl)pyrrolo[2,1-f][1,2,4]triazin-4-yl)benzenesulfonamide], the IC50 is 100 to 1000 nM in assay [1] and greater than 10000 nM in assay [2]. In the case of `CCc1cc(-c2ccc3c(NS(=O)(=O)c4ccc(OC(F)(F)F)cc4)ncnn23)cc2cnc(N[C@H]3CCCNC3)nc12` [Compound I-27, (S)—N-(7-(8-ethyl-2-(piperidin-3-ylamino)quinazolin-6-yl)pyrrolo[2,1-f][1,2,4]triazin-4-yl)-4-(trifluoromethoxy)benzenesulfonamide], the IC50 fell in the range of 100 to 1000 nM in assay [1] and 1000 to 10000 nM in assay [2]. Turning to `CCc1cc(-c2ccc3c(NS(=O)(=O)c4ccccc4C)ncnn23)cc2cnc(N[C@H]3CCCNC3)nc12` [Compound I-2, (S)—N-(7-(8-ethyl-2-(piperidin-3-ylamino)quinazolin-6-yl)pyrrolo[2,1-f][1,2,4]triazin-4-yl)-2-methylbenzenesulfonamide], the figures for the IC50 in assay [1] and in assay [2] were less than 100 nM and less than 1000 nM, respectively. Take `CCc1cc(-c2ccc3c(NS(=O)(=O)c4ccccc4Cl)ncnn23)cc2cnc(N[C@H]3CCCCNC3)nc12` [Compound I-12, (S)—N-(7-(2-(azepan-3-ylamino)-8-ethylquinazolin-6-yl)pyrrolo[2,1-f][1,2,4]triazin-4-yl)-2-chlorobenzenesulfonamide]: the IC50 in assay [1] is less than 100 nM; in assay [2], less than 1000 nM. With `CCc1cc(-c2ccc3c(NS(=O)(=O)c4ccc(OC(F)F)cc4)ncnn23)cc2cnc(N[C@H]3CCCNC3)nc12` [Compound I-5, (S)-4-(difluoromethoxy)-N-(7-(8-ethyl-2-(piperidin-3-ylamino)quinazolin-6-yl)pyrrolo[2,1-f][1,2,4]triazin-4-yl)benzenesulfonamide], the IC50 in assay [1] was less than 100 nM; in assay [2], 1000 to 10000 nM. The like results for `CCc1cc(-c2ccc3c(NS(=O)(=O)c4ccccc4Cl)ncnn23)cc2cnc(N[C@H]3CCCC[C@@H]3O)nc12` [Compound I-4, 2-chloro-N-(7-(8-ethyl-2-(((1S,2S)-2-hydroxycyclohexyl)amino)quinazolin-6-yl)pyrrolo[2,1-f][1,2,4]triazin-4-yl)benzenesulfonamide] were, in that order, 100 to 1000 nM and greater than 10000 nM. Take `CCc1cc(-c2ccc3c(NS(=O)(=O)C4CCCCC4)ncnn23)cc2cnc(N[C@H]3CCCNC3)nc12` [Compound I-3, (S)—N-(7-(8-ethyl-2-(piperidin-3-ylamino)quinazolin-6-yl)pyrrolo[2,1-f][1,2,4]triazin-4-yl)cyclohexanesulfonamide]: the figures for the IC50 in assay [1] and in assay [2] were less than 100 nM and less than 1000 nM, respectively. In the case of `CCc1cc(-c2ccc3c(NS(=O)(=O)CCC(F)(F)F)ncnn23)cc2cnc(N[C@H]3CCCNC3)nc12` [Compound I-9, (S)—N-(7-(8-ethyl-2-(piperidin-3-ylamino)quinazolin-6-yl)pyrrolo[2,1-f][1,2,4]triazin-4-yl)-3,3,3-trifluoropropane-1-sulfonamide], the IC50 in assay [1] was less than 100 nM; in assay [2] it was 1000 to 10000 nM. For `CCc1cc(-c2ccc3c(NS(=O)(=O)c4ccccc4Cl)ncnn23)cc2cnc(N[C@H]3CC[C@H](O)C3)nc12` [Compound I-14, 2-chloro-N-(7-(8-ethyl-2-(((1S,3S)-3-hydroxycyclopentyl)amino)quinazolin-6-yl)pyrrolo[2,1-f][1,2,4]triazin-4-yl)benzenesulfonamide], the IC50 in assay [1] is less than 100 nM; in assay [2], greater than 10000 nM. The like results for `CCc1cc(-c2ccc3c(NS(=O)(=O)c4ccccc4F)ncnn23)cc2cnc(N[C@H]3CCCNC3)nc12` [Compound I-1, (S)—N-(7-(8-ethyl-2-(piperidin-3-ylamino)quinazolin-6-yl)pyrrolo[2,1-f][1,2,4]triazin-4-yl)-2-fluorobenzenesulfonamide] were, in that order, less than 100 nM and less than 1000 nM. `CCc1cc(-c2ccc3c(NS(=O)(=O)c4ccccc4Cl)ncnn23)cc2cnc(N[C@H]3CCCC[C@H]3O)nc12` [Compound I-10, 2-chloro-N-(7-(8-ethyl-2-(((1S,2R)-2-hydroxycyclohexyl)amino)quinazolin-6-yl)pyrrolo[2,1-f][1,2,4]triazin-4-yl)benzenesulfonamide]: the IC50 in assay [1] was greater than 1000 nM. The same measure, in the same setting: the same measure for `CCc1cc(-c2ccc3c(NS(=O)(=O)c4ccccc4Cl)ncnn23)cc2cnc(N[C@H]3CCCC[C@@H]3N)nc12` [Compound I-13, N-(7-(2-(((1S,2S)-2-aminocyclohexyl)amino)-8-ethylquinazolin-6-yl)pyrrolo[2,1-f][1,2,4]triazin-4-yl)-2-chlorobenzenesulfonamide]: greater than 1000 nM.

Values taken from US20240262830A1, “IRE1A MODULATORS AND USES THEREOF” (Nimbus Iaso, Inc., priority 2020, published 2024).
